Values after ≈ are worked out from the molar mass of the structure shown. Values joined by “and” are separate entries in the source; they are usually repeats but may differ in a detail not shown here. Identical values can stand only once. Like-named read-outs stand apart in the source and are kept apart here.
Tests used:
E. coli ASP #49 (envA-) = experiment: In vitro MIC panel assay (NCCLS broth microdilution); type: cell-based; conditions: E. coli ASP #49 (envA−); MH II broth
Text: (§1) National Committee for Clinical Laboratory Standards (NCCLS) guidelines [Methods for Dilution Antimicrobial Susceptibility Tests for Bacteria that Grow Aerobically-Fourth Edition; Approved Standard (NCCLS Document M7-A4, January 1997)] are used to establish the assay, although variations are made to optimize the published method according to the specific needs of the present investigation.
(§2) The test panel currently includes eight enterococci and 13 staphylococci, which are selected based upon their antibiotic susceptibility profiles. The methicillin-sensitive Staphylococcus aureus (MSSA) strain MB2985 (Smith isolate) is used to assesses the potential for serum protein binding of the compounds. The paired Gram-negative strains ASP #49 (envA-) and ASP #50 (envA+) (M. Salvatore/N. Lee) are included to judge membrane effects. Table 3 presents a detailed description of the strains included in the panel, including some of the sources of the strains of bacteria.
(§3) The glycopeptide antibiotic teicoplanin is included whenever possible.
(§4) TSB, containing 10% HS* for vancomycin intermediate S. aurcus/methicillin-resistant S. aureus (VISA/MRSA) strains, is inoculated from an appropriate source (frozen broth or agar slant) and grown approximately 17 hr at 35° C. with shaking at 220 rpm. Cultures are grown in tubes with a volume of 5 ml for enterococci and 2 ml for all other strains.
(§5) Four milliliter (4 ml) overnight culture is added to 36 ml physiological saline to obtain tenfold dilutions (enterococci). Overnight culture (0.4 ml) is added to 39.6 ml saline to obtain 100-fold dilutions (all strains except enterococci). Diluted cultures are maintained on ice until time of inoculation of test plates.
(§6) The number of CFU/mL is determined on BHI agar plates, although this is not done routinely because titers of overnight cultures are relatively constant. The test media include: • BHI for enterococci and VISA/MRSA; • MH II (i.e., cation-adjusted Mueller-Hinton broth) for MRS, MSS and E. coli.; • MH II+HSA for MSSA is prepared as follows: • a. 2×MHII+86mg/ml HSA • b. Dissolve 4.3 g HSA in 50 ml autoclaved 2x MH II. • c. pH to 7.0 by adding 2M MOPS, sodium. • d. Filter sterilize using 0.22 μm Coming cellulose acetate filter, used because of reported low protein binding. • e. 1×MH II+43 mg/ml HSA • f. Dilute the 2×medium twofold and filter as above. 5.8.6. Preparation of Test Plates
(§7) Using a Denley liquid handling system (or similar automatic device), 100 μ1×medium is added to each well in columns 2-12 of a 96-well microtiter dish. Using a multichannel pipettor, 100 μl 2×medium is added to each well in column 1. Plates may be filled on the day prior to assay, wrapped in plastic bags and refrigerated.
(§8) Vancomycin, Schering 29482, and teicoplanin are prepared on a weight per volume basis using 10 mM 3-(N-morpholino)propane-sulfonic acid (MOPS) buffer pH 7. Test compounds are received in solution in appropriate solvent (typically as 1 mg/ml in DMSO) or are dissolved in appropriate solvent prior to further dilution in 10 mM MOPS buffer, ph7. Consistent with NCCLS guidelines, antibiotics are handled aseptically but are not otherwise sterilized.
(§9) 100 μl appropriately diluted antibiotic solution is added to the first well of the designated row of the 96-well microtiter dish and serially diluted by twofold across the row using the Denley liquid handling system. With the aid of a Dynatech NEC 2000 inoculator, each well of the microtiter dish is inoculated with 1.5 μl diluted overnight culture, yielding approximately 1-5×10^6 CFU/ml for enterococci and approximately 3-7×10^5 CFU/ml for all other strains. Dishes are placed in stacks of no more than five, wrapped in plastic bags and incubated at 35° C. • Indication of result(s) type (% INH, IC50, Zone size, etc.) • MIC=minimum inhibitory concentration ps 5.8.9. Interpretation of the Results on the Basis of Activity […]

E. coli ASP #50 (envA+) = experiment: as above; type: cell-based; conditions: E. coli ASP #50 (envA+); MH II broth
Text: as §1, §2, §3, §4, §5, §6, §7, §8, §9

MRCNS CL 202 (S. haem.) = experiment: as above; type: cell-based; conditions: MRCNS CL 202 (S. haem.); MH II broth
Text: as §1, §2, §3, §4, §5, §6, §7, §8, §9

MRCNS CL 3069 (S. epi.) = experiment: as above; type: cell-based; conditions: MRCNS CL 3069 (S. epi.); MH II broth
Text: as §1, §2, §3, §4, §5, §6, §7, §8, §9

S. aureus MB 2985 = experiment: MIC by microdilution in Mueller-Hinton broth (in vivo study); type: cell-based; conditions: inoculum 1.4 × 10^5 cfu/mL in cation adjusted MHB
Protocol: The MIC is determined by microdilution in Mueller-Hinton broth (MHB) according to the National Committee for Clinical Laboratory Standards guidelines after incubation for 24 hours. Enterococci are tested in cation-supplemented Mueller-Hinton broth at 1.4×10^5 cfu/ml. MIC is defined as the lowest concentration of antibiotic, which inhibits visible growth.

[1] = test system: Staphylococcus aureus strain MB2985; experiment: In vivo mouse methicillin-sensitive Staphylococcus aureus septicemia protection; set-up: species or system ICR female mice
Protocol: Selected compounds of the invention are tested in an in vivo mouse model. Single dose subcutaneous antibiotic protection from septicemic infections is measured as described by Gill, C. J., J. J. Jackson, L. Gerckens, B. Pelak, R. Thompson, J. Sundelof, H. Kropp and H. Rosen. Antimicrob. Agents Chemother. 42:1996-2001 (1998). Survival is monitored for seven days. ED50's and LD50's are determined by the method of Knudsen and Curtis. J. Am. Stat. Assoc. 42:282-296 (1947). Septicemia is induced in 20 gram ICR (derived from CD-I) female mice by intraperitoneal infection with Staphylococcus aureus strain MB2985. Infection is given i.p. in Brain Heart Broth (BHB) at an infectious inoculum of 1.8×10^7 cfu/mouse. Drug is administered subcutaneously immediately after the infection is initiated.

[2] = test system: E. faecium CL 5053 (VanA); experiment: microbe, parasite or virus in culture; type: cell-based; set-up: CL5053 (in vitro testing): unit not given here; conditions: for CL5053 (in vitro testing): Tables 7 and 8, unit not given
How it was run: (§10)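 Twofold broth microdilution per modified NCCLS M7-A4, 35 °C. Enterococci and VISA/MRSA in BHI (VISA/MRSA precultured in TSB + 10% HS), E. coli in MH II. Inocula ~1-5×10^6 CFU/ml for enterococci, ~3-7×10^5 CFU/ml otherwise. MIC is the lowest concentration with no visible growth, read at 18-20 hr (E. coli) or 22-24 hr.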

Pharmacokinetic studies = type: in vivo; conditions: compared with compound 2; stated as and/or
MRSA MH 76 = experiment: In vitro MIC panel assay (NCCLS broth microdilution); type: cell-based, Staphylococcus aureus; conditions: MRSA MH 76; MH II broth
Text: as §1, §2
The glycopeptide antibiotic teicoplanin is included whenever possible. […]
The number of CFU/mL is determined on BHI agar plates, although this is not done routinely because titers of overnight cultures are relatively constant. […]

[3] = test system: E. faecalis CL 4877 (VanB); experiment: microbe, parasite or virus in culture; type: cell-based; set-up: CL4877 (in vitro testing): unit not given here; conditions: for CL4877 (in vitro testing): Tables 7 and 8, unit not given; for MIC, CL4877: E. faecalis CL 4877 (VanB)
How it was run: as §10

[4] = test system: E. faecium CL 4931 (VanA); experiment: microbe, parasite or virus in culture; type: cell-based; set-up: CL4931 (in vitro testing): unit not given here; conditions: for CL4931 (in vitro testing): Tables 7 and 8, unit not given; for MIC, CL4931: E. faecium CL 4931 (VanA)
How it was run: as §10

[5] = test system: CL 4931, CL 5053, CL 5242 and CL 4877; type: cell-based, E. faecium, E. faecalis; set-up: unit not given here
How it was run: as §10

[6] = test system: E. faecium CL 5242 (VanA); experiment: microbe, parasite or virus in culture; type: cell-based; set-up: CL5242 (in vitro testing): unit not given here; conditions: for CL5242 (in vitro testing): Tables 7 and 8, unit not given; for MIC, CL5242: E. faecium CL 5242 (VanA)
How it was run: as §10

[7] = mouse septicemia, S. aureus 2985 i.p. 1.8 × 10^7 cfu/mouse, single s.c. dose at 0 hr, survival seven days
[8] = mean of CL4931, CL5053, CL5242, CL4877, unit not given
[9] = Table 9, mean MIC over CL4931, CL5053, CL5242, CL4877
[10] = Table 9, E. faecium CL 5053 (VanA)

CNC(CC(C)C)C(=O)NC1C(=O)NC(CC(N)=O)C(=O)NC2C(=O)NC3C(=O)NC(C(=O)NC(C(=O)O)c4cc(O)cc(O)c4-c4cc3ccc4O)C(O)c3ccc(c(Cl)c3)Oc3cc2cc(c3OC2OC(CN)C(O)C(O)C2OC2CC(C)(NCc3ccc(OCc4ccc(Cl)c(Cl)c4)cc3)C(O)C(C)O2)Oc2ccc(cc2Cl)C1O (stereo not drawn) [Compound 13, Glucos-6-amino-N-4-(3,4-dichlorobenzyloxy)benzyl-vancosamino-vancomycin]
MIC (E. coli ASP #49 (envA-)): 16 µg/mL and 8 µg/mL
MIC (E. coli ASP #50 (envA+)): >64 µg/mL and 64 µg/mL
MIC (MRCNS CL 202 (S. haem.)): 0.12 µg/mL and 0.06 µg/mL
MIC (MRCNS CL 3069 (S. epi.)): 0.06 µg/mL and 0.03 µg/mL
MIC (S. aureus MB 2985): 0.125 µg/mL (≈ 0.073 µM)
ED50/MIC ([1]; S. aureus 2985, ratio of s.c. ED50 to MIC): 3.12
ED0 (s.c.) [1, 7]: 0.195 mg/kg
ED50 (s.c.) [1, 7]: 0.390 mg/kg
ED100 (s.c.) [1, 7]: 0.780 mg/kg
MIC ([2]; E. faecium CL 5053 (VanA), BHI broth): 1 µg/mL and 2 µg/mL
bioavailability (Pharmacokinetic studies): unexpectedly greater bioavailability
clearance rate (Pharmacokinetic studies): faster clearance rate
tissue distribution (Pharmacokinetic studies): more favorable tissue distribution
MIC (MRSA MH 76): 0.25 µg/mL (≈ 0.146 µM)

CNC(CC(C)C)C(=O)NC1C(=O)NC(CC(N)=O)C(=O)NC2C(=O)NC3C(=O)NC(C(=O)NC(C(=O)O)c4cc(O)cc(O)c4-c4cc3ccc4O)C(O)c3ccc(c(Cl)c3)Oc3cc2cc(c3OC2OC(CN)C(O)C(O)C2OC2CC(C)(NCc3ccc(C(=O)Oc4ccc(Cl)c(Cl)c4)cc3)C(O)C(C)O2)Oc2ccc(cc2Cl)C1O (stereo not drawn) [Compound 188]
CL4877 (in vitro testing) [3]: 16
CL4931 (in vitro testing) [4]: 8
Mean [5, 8]: 11
CL5053 (in vitro testing) [2]: 16
CL5242 (in vitro testing) [6]: 4

CNC(CC(C)C)C(=O)NC1C(=O)NC(CC(N)=O)C(=O)NC2C(=O)NC3C(=O)NC(C(=O)NC(C(=O)O)c4cc(O)cc(O)c4-c4cc3ccc4O)C(O)c3ccc(c(Cl)c3)Oc3cc2cc(c3OC2OC(CN)C(O)C(O)C2OC2CC(C)(NCC(=O)Oc3ccc(-c4ccc(Cl)c(Cl)c4)cc3)C(O)C(C)O2)Oc2ccc(cc2Cl)C1O (stereo not drawn) [Compound 189]
CL4877 (in vitro testing) [3]: 32
CL4931 (in vitro testing) [4]: 32
Mean [5, 8]: 32
CL5053 (in vitro testing) [2]: >32
CL5242 (in vitro testing) [6]: 32

CNC(CC(C)C)C(=O)NC1C(=O)NC(CC(N)=O)C(=O)NC2C(=O)NC3C(=O)NC(C(=O)NC(C(=O)O)c4cc(O)cc(O)c4-c4cc3ccc4O)C(O)c3ccc(c(Cl)c3)Oc3cc2cc(c3OC2OC(CNCc3ccccc3)C(O)C(O)C2OC2CC(C)(NCc3ccc(-c4ccc(Cl)cc4)cc3)C(O)C(C)O2)Oc2ccc(cc2Cl)C1O (stereo not drawn) [Compound 190]
MIC, CL4877 ([3]; Table 9): 4 µg/mL (≈ 2.3 µM)
MIC, CL4931 ([4]; Table 9): 8 µg/mL (≈ 4.6 µM)
Mean [5, 9]: 5.5
MIC, CL5053 [2, 10]: 8 µg/mL (≈ 4.6 µM)
MIC, CL5242 ([6]; Table 9): 2 µg/mL (≈ 1.15 µM)

C=Cc1ccccn1 [Compound 191, 2-pyridylethylene]
MIC, CL4877 ([3]; Table 9): 16 µg/mL (≈ 152 µM)
MIC, CL4931 ([4]; Table 9): 16 µg/mL (≈ 152 µM)
Mean [5, 9]: 13.0
MIC, CL5053 [2, 10]: 16 µg/mL (≈ 152 µM)
MIC, CL5242 ([6]; Table 9): 4 µg/mL (≈ 38 µM)

CNC(CC(C)C)C(=O)NC1C(=O)NC(CC(N)=O)C(=O)NC2C(=O)NC3C(=O)NC(C(=O)NC(C(=O)O)c4cc(O)cc(O)c4-c4cc3ccc4O)C(O)c3ccc(c(Cl)c3)Oc3cc2cc(c3OC2OC(CNCC3CCCO3)C(O)C(O)C2OC2CC(C)(NCc3ccc(-c4ccc(Cl)cc4)cc3)C(O)C(C)O2)Oc2ccc(cc2Cl)C1O (stereo not drawn) [Compound 192]
MIC, CL4877 ([3]; Table 9): 16 µg/mL (≈ 9.23 µM)
MIC, CL4931 ([4]; Table 9): 16 µg/mL (≈ 9.23 µM)
Mean [5, 9]: 13.0
MIC, CL5053 [2, 10]: 16 µg/mL (≈ 9.23 µM)
MIC, CL5242 ([6]; Table 9): 4 µg/mL (≈ 2.31 µM)

teicoplanin [reference compound]
MIC, CL4877 ([3]; Table 9): 0.5 µg/mL
MIC, CL4877 ([3]; Table 10): 16 µg/mL
CL4877 (in vitro testing) [3]: 0.5
MIC, CL4931 ([4]; Table 9): 256 µg/mL
MIC, CL4931 ([4]; Table 10): 256 µg/mL
CL4931 (in vitro testing) [4]: 256
Mean [5, 9]: 128.1
Mean ([5]; Table 10, mean MIC over CL4931, CL5053, CL5242, CL4877): 256.0
Mean [5, 8]: 170.8
MIC, CL5053 [2, 10]: > 1020 µg/mL
MIC, CL5053 ([2]; Table 10, E. faecium CL 5053 (VanA)): > 1020 µg/mL
CL5053 (in vitro testing) [2]: >1024
MIC, CL5242 ([6]; Table 9): 256 µg/mL
MIC, CL5242 ([6]; Table 10): 256 µg/mL
CL5242 (in vitro testing) [6]: 256

From US6841661B2, “Glycopeptide antibacterial compounds, compositions containing same and methods of using same” (Princeton Univerisity, priority 1999, dated 2005)
